Legend:
[1] = tested on: HEK293 cells expressing the TRplp-fLUC or TRdm-fLUC expression cassette; test: Cytotoxicity assay by Western blot, monocistronic TR-fLUC cassettes; assay type: cell-based, human
Experimental: For this example, expression and regulation of the TRplp-EYFP, TRdm-EYFP, TRplp-fLUC, or TRdm-fLUC expression cassettes in stably transformed HEK293 cells are validated using Western blot analysis. Cell lines or pools are grown in six-well trays or 60 mm dishes to about 60% confluence and treated with complete medium supplemented with a toxic chemical. […] Control samples are treated with fresh medium. Treated and control cells were removed by pipette, collected in media, pelleted for 5 min at 800 rpm (room temperature), and either stored at −70/−80° C. or immediately processed for total proteins.
For protein extraction, cells are resuspended in equal volumes of Suspension Buffer (100 mM NaCl, 10 mM Tris-HCl [pH 7.6], 1 mM EDTA, 1 mg/mL aprotinin, 100 μg/mL PMSF) and 2×SDS Buffer (100 mM Tris-HCl [pH 6.8], 4% SDS, 20% glycerol, 200 mM DTT). Frozen cells are thawed on ice prior to resuspension. The extracts are homogenized by several passages through a syringe fitted with a 26 G needle. Samples are subsequently incubated at RT for 1-2 hr. Samples are transferred to −70/−80° C. for storage or applied to an SDS PAGE gel and examined by Western blot analysis.
To insure equal protein loading levels on Western blots, 10 μL of each protein extract are initially resolved by SDS PAGE, fixed overnight in Preblot gel fixer (25% isopropanol, 10% acetic acid), and stained in 0.05% Coomassie blue (0.05% brilliant blue R, 50% methanol, 10% acetic acid) for 20 min, RT. Gels are destained in 10% acetic acid and dried under vacuum. Using the dried gels, any necessary volume adjustment was made to samples prior to Western blotting.
Western blot analysis is a well established technique in the art and is summarized in the following. Following SDS PAGE gel resolution and protein transfer to a solid membrane support by electrophoresis, the membranes are dried overnight. […] Similarly, fLUC protein is detected using an anti-fLUC antibody (Sigma; 1:1000 dilution). After incubation with a primary antibody and extensive washing (1×PBS-T), proteins binding the primary antibody are detected by incubation with a horseradish peroxidase (HRP) conjugated anti-rabbit or anti-mouse antibody (Amersham; 1:5000 to 1:10000 dilution). Following incubation with the secondary antibody and extensive washing, reactive proteins are detected with the ECL reagent system (Amersham) as described by the vendor.
Following treatment with toxic levels of the calcium ionophore A23187, highly significant increases in fLuc protein levels are observed in the stressed and dying cells that were not evident in untreated cultures. Individual protein bands are quantitated by densitometry on a Beckman DU7400 spectrophotometer.

[2] = tested on: HEK293 TRplp-fLUC and TRdm-fLUC subclones; test: Cytotoxicity assay by immunofluorescence of fLUC protein; assay type: cell-based, human; details: 12 hr
Source text: To examine TR-mediated translation from the TR-fLUC cassettes, the translated fLUC protein requires immunolabeling with fluorescent antibodies. In this study, HEK293 cells transformed with the CMV-fLUC, TRplp-fLUC or TRdm-fLUC expression cassettes are visualized following immunodetection of the fLUC protein using a primary anti-fLUC antibody (Sigma) and a species-specific rhodamine-labeled secondary antibody (Kirkegaard and Perry Laboratories, Inc.). DAPI labeling of nuclear DNA is a well known procedure in the art and was used to label nuclei.
Forty hours prior to toxin exposure, 300,000 cells (HEK293, HEK293 CMV-fLUC, HEK293 TRplp-fLUC subclone #3, HEK293 TRplp-fLUC subclone #17, HEK293 TRdm-fLUC subclone #12, or HEK293 TRdm, fLUC subclone #45) were plated on flame sterilized glass coverslips in a 12-well tray. Cells are cultured in complete DMEM medium. Fresh medium supplemented with 6.7 micromolar calcium ionophore A23187 is applied and slides collected at 12 hr. […] After this, the coverslips are washed in 1×PBS, labeled with DAPI (30 sec, RT), washed in 1×PBS, and mounted for fluorescence microscopy.
In untreated cell cultures, the frequency of fLUC-positive cells ranged from 2.4-7.2%, which is 1-3 times higher than the normal frequency of nonviable cells, as determined by Trypan blue staining. […]

SMILES: CNc1ccc2oc(C[C@H]3O[C@@]4(CC[C@H]3C)O[C@H]([C@H](C)C(=O)c3ccc[nH]3)[C@H](C)C[C@H]4C)nc2c1C(=O)O [calcium ionophore A23187]
- average increase in fLuc protein levels in stressed and dying cells ([1]; HEK293 TRdm-fLuc cells, n=6): 524.3%
- average increase in fLuc protein levels in stressed and dying cells ([1]; HEK293 TRplp-fLuc expressing cells, n=5): 402.8%
- increases in fLUC protein levels, % of the protein levels detected in untreated TRplp-fLUC/TRdm-fLUC cells ([1]; cell pools and lines, toxic levels (5-6.7 micromolar), densitometry of Western blot): 160-800%
- fLUC protein levels in stressed and dying TR-fLUC cells, % of the protein levels of cells expressing cap-dependent CMV-fLuc ([1]; toxin-treated cells, FIG. 6): ≤ 110%
- increase in number of fLUC positive cells compared to untreated samples ([2]; HEK293 TRdm-fLUC subclone #12, 6.7 micromolar): 3640%
- increase in number of fLUC positive cells compared to untreated samples ([2]; HEK293 TRdm-fLUC subclone #45, 6.7 micromolar): 1440%
